Each structure is given as a SMILES string.

The test system of series [1] is Colletotrichum lindemuthianum. The series can be described thus: B-8. Colletotrichum lindemuthianum in vitro cell test. It is filed as cell-based. The following applies: 144 h, 20 ppm of active ingredient, 6 days incubation, liquid culture, absorbance, read-out: efficacy (inhibition of fungal growth). In short, it runs like this: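 Liquid-culture germination/growth test: compounds in ≤1% final DMSO were added to spore-containing medium. Fungal growth was quantified spectrophotometrically after 6 days of incubation and expressed as inhibition versus untreated controls.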

Series [2] has as its system Botrytis cinerea. The series can be described thus: B-11. Botrytis cinerea in vitro cell test. As to conditions: 144 h, 20 ppm of active ingredient, 6 days incubation, liquid culture, absorbance, read-out: efficacy (inhibition of fungal growth). It is filed as cell-based. In short, it runs like this: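 B. cinerea spores were grown in liquid culture with compound (DMSO ≤1% final). Mycelium growth was measured spectrometrically after 6 days, with inhibition taken as absorbance relative to untreated control wells.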

In series [3] the test system is Colletotrichum lindemuthianum. The series can be described thus: In vivo preventive test on Colletotrichum lindemuthianum (leaf spot on bean). As to conditions: 168 h, 500 ppm of active ingredient, preventive spray on bean, evaluated 7 days after inoculation, read-out: efficacy. In short, it runs like this: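 Young bean plants sprayed with compound in DMSO/acetone/Tween 80 diluted in water; solvent-only controls. Inoculated 24 h later with C. lindemuthianum spore suspension, then kept 24 h at 20 °C/100% RH and 6 days at 20 °C/90% RH.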

The test system of a further series is Alternaria alternata. The series can be described thus: Alternaria alternata in vitro cell test. The following applies: 120 h, 20 ppm of active ingredient, liquid culture, 5 days incubation, spectrometric measurement of mycelium growth, read-out: efficacy (inhibition of fungal growth). The format is cell-based. In short, it runs like this:
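Spectrometric readout of mycelial growth after 5-day incubation gauged compound effects on spore germination and growth of A. alternata in liquid medium. Compounds were delivered in DMSO at ≤1% final. Absorbance was compared with untreated controls to give inhibition.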

The subject of series [4] is Botrytis cinerea. The series is described as follows: In vivo preventive test on Botrytis cinerea (grey mould). The following applies: 500 ppm of active ingredient, preventive spray on gherkin or cabbage, evaluated 4 to 5 days after inoculation, read-out: efficacy. Put shortly: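 Preventive spray on cabbage or gherkin seedlings, with compound formulated in DMSO/acetone/Tween 80 and water-diluted, preceded spore inoculation by 24 hours. Cabbage was held 4 to 5 days at 20° C., 100% relative humidity; gherkin 4 to 5 days at 17° C., 90% relative humidity.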

In the next series the test system is Sphaerotheca fuliginea. The series can be described thus: In vivo preventive test on Sphaerotheca fuliginea (powdery mildew on cucurbits). The following applies: Podosphaera fuliginea, 192 h; 500 ppm of active ingredient; preventive spray on gherkin; evaluated 8 days after inoculation; read-out: efficacy. Put shortly:
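This is a preventive spray test on gherkin seedlings, with compound formulated in DMSO/acetone/Tween 80 in water and solvent-only controls. Spore inoculation followed one day after treatment. Incubation lasted 8 days at 20 °C, 70–80% RH.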

A short description of series [5]: Measurement of Log P values by HPLC on reversed phase columns (EEC directive 79/831 Annex V.A8). It is filed as physicochemical. As to conditions: reversed phase HPLC column, method [a]: LC-UV, acidic range, 0.1% formic acid in water and acetonitrile as eluent. Put shortly: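 Log P derived from retention on reversed-phase columns (EEC directive 79/831 Annex V.A8), LC-UV, acetonitrile gradient 10% to 95% against water containing 0.1% formic acid, 0.001 M ammonium acetate, or 0.1% phosphoric acid; several values per method separated by "+".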

A further series has as its system Alternaria brassicae. The series is described as follows: In vivo preventive test on Alternaria brassicae (leaf spot on radish or cabbage). As to conditions: 500 ppm of active ingredient, preventive spray on radish or cabbage, evaluated 3 to 4 days after inoculation, read-out: efficacy. Put shortly: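 Protective spray on young radish or cabbage: actives in water diluted from DMSO/acetone/Tween 80, with solvent-only controls. Leaves were challenged after 24 h with a spore suspension, and plants were held at 100% RH, 20 °C for 3 to 4 days.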

Series [6] relates to Pyrenophora teres. The series is described as follows: In vivo preventive test on Pyrenophora teres (net blotch on barley). As to conditions: 240 h, 500 ppm of active ingredient, preventive spray on barley, evaluated 10 days after inoculation, read-out: efficacy. How it is done: B-3. In Vivo Preventive Test on Pyrenophora Teres (Net Blotch on Barley) [table] The active ingredients were made soluble and homogenized in a mixture of Dimethyl sulfoxide/Acetone/Tween® 80 and then diluted in water to the desired concentration. The young plants of barley were treated by spraying the active ingredient prepared as described above. Control plants were treated only with an aqueous solution of Acetone/Dimethyl sulfoxide/Tween® 80. After 24 hours, the plants were contaminated by spraying the leaves with an aqueous suspension of Pyrenophora teres spores. The contaminated barley plants were incubated for 48 hours at 20° C. and at 100% relative humidity and then for 8 days at 20° C. and at 70-80% relative humidity.

Series [7] deals with Pyrenophora teres. The series can be described thus: B-10. Pyrenophora teres in vitro cell test. The format is cell-based. The following applies: 144 h, 20 ppm of active ingredient, 6 days incubation, liquid culture, absorbance, read-out: efficacy (inhibition of fungal growth). Put shortly: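 Liquid-culture assay on a P. teres spore suspension with compounds added to the medium from DMSO solutions, final DMSO ≤1%. Mycelium growth read spectrometrically after 6 days. Inhibition calculated from absorbance against untreated control wells.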

In general, inhibition refers to the relative decrease from the control value, in per cent. As usually defined, the chromatographic logP is a lipophilicity value derived from retention on a column. Higher therefore signals higher lipophilicity. Regarding `Cc1cc(Cl)ccc1[C@@H](F)CNC(=O)c1c(Oc2cccc(Cl)c2)nnc2ccccc12` (racemic) [I-053], the inhibition at 20 ppm (in [1]; in the series on Botrytis cinerea [2]; in the series with Alternaria alternata) was 90 to 100% in each case. Moreover, the pest or weed control at 500 ppm in series [3] lay in the range of 90 to 100%; in the series with Botrytis cinerea [4] it was 90 to 100%; in the series on Sphaerotheca fuliginea, 80 to 89%; in the series with Alternaria brassicae, 90 to 100%; in the series with Pyrenophora teres [6] it was 70 to 79%. The compound further returned a chromatographic logP in [5] of 4.23.

`O=C(NC[C@H](F)c1ccc(C2CC2)cc1Cl)c1c(Oc2cccc(Cl)c2)nnc2ccccc12` (racemic) [I-054]: the inhibition at 20 ppm (in series [1]; with Botrytis cinerea [2]; in the series on Alternaria alternata) was 90 to 100% in each case. Besides, the pest or weed control at 500 ppm is 90 to 100% in series [3]; 90 to 100% in the series on Botrytis cinerea [4]; 70 to 79% in the series with Sphaerotheca fuliginea; 90 to 100% with Alternaria brassicae; 80 to 89% in the series on Pyrenophora teres [6]. For the same compound, in series [5], the chromatographic logP stood at 4.47.

With `Cc1cc(Br)ccc1[C@@H](F)CNC(=O)c1c(Oc2cccc(Cl)c2)nnc2ccccc12` (racemic) [I-055], the inhibition at 20 ppm (in series [1]; in the series on Botrytis cinerea [2]; in the series on Alternaria alternata) was 90 to 100% throughout. For the same compound, the pest or weed control at 500 ppm in series [3] was in the range of 70 to 79%; in the series on Botrytis cinerea [4], 90 to 100%; in the series on Sphaerotheca fuliginea, 90 to 100%; with Alternaria brassicae, 90 to 100%; in the series on Pyrenophora teres [6], 80 to 89%. For the same compound, the chromatographic logP in [5] came out at 4.33.

With `Cc1ccc(CCNC(=O)c2c(Oc3cccc(C(F)(F)F)c3)cnc3ccoc23)c(C)c1` [I-068], the inhibition at 20 ppm (in series [1]; with Botrytis cinerea [2]; in the series with Alternaria alternata; in the series with Pyrenophora teres [7]) was 90 to 100% each time. For the same compound, the pest or weed control at 500 ppm lay in the range of 90 to 100% in [3]; 90 to 100% in the series on Botrytis cinerea [4]; 90 to 100% in the series on Sphaerotheca fuliginea; 90 to 100% in the series with Alternaria brassicae; 80 to 89% in the series with Pyrenophora teres [6]. In series [5], this compound displayed a chromatographic logP of 4.04.

As for `O=C(NCC(F)(F)c1ccc(Br)cc1Cl)c1c(Oc2cccc(C(F)(F)F)c2)cnc2c1OCCO2` [I-107, N-[2-(4-bromo-2-chloro-phenyl)-2,2-difluoro-ethyl]-7-[3-(tri-fluoromethyl)phenoxy]-2,3-dihydro-[1,4]dioxino[2,3-b]pyridine-8-carboxamide], the inhibition at 20 ppm (in series [1]; with Alternaria alternata) was 90 to 100% throughout. Moreover, the pest or weed control at 500 ppm fell in the range of 90 to 100% in series [3]; 90 to 100% with Botrytis cinerea [4]; 90 to 100% with Sphaerotheca fuliginea; 90 to 100% in the series with Alternaria brassicae; 80 to 89% in the series with Pyrenophora teres [6]. Further, in series [5], the chromatographic logP came out at 3.94.

Turning to `Cc1ccc(C(F)(F)CNC(=O)c2c(Oc3cccc(C(F)(F)F)c3)cnc3c2OCCO3)c(C)c1` [I-109], the inhibition at 20 ppm (in series [1]; in the series with Alternaria alternata) was 90 to 100% in each case. In addition, the pest or weed control at 500 ppm (in [3]; with Botrytis cinerea [4]; in the series on Sphaerotheca fuliginea; with Alternaria brassicae; with Pyrenophora teres [6]) was 90 to 100% each time. In [5], the chromatographic logP is 3.71.

With `Cc1ccc(CCNC(=O)c2c(Oc3cccc(C(F)(F)F)c3)cnc3c2OCCO3)c(C)c1` [I-110], the inhibition at 20 ppm (in series [1]; with Alternaria alternata) was 90 to 100% throughout. The pest or weed control at 500 ppm (in series [3]; in the series with Botrytis cinerea [4]; in the series on Sphaerotheca fuliginea; with Alternaria brassicae; in the series with Pyrenophora teres [6]) was 90 to 100% each time. In series [5], the chromatographic logP turned out to be 3.6.

Turning to `Cc1ccc(C(F)(F)CNC(=O)c2c(Oc3cccc(C(F)(F)F)c3)nnc3c2CCCCC3)c(C)c1` [I-113, N-[2-(2,4-dimethylphenyl)-2,2-difluoro-ethyl]-3-[3-(trifluoro-methyl)phenoxy]-6,7,8,9-tetrahydro-5H-cyclohepta[c]pyridazine-4-carboxamide], the inhibition at 20 ppm (in series [1]; with Alternaria alternata) was 90 to 100% throughout. Further, the pest or weed control at 500 ppm in series [3] is 80 to 89%; with Botrytis cinerea [4], 90 to 100%; in the series on Sphaerotheca fuliginea, 90 to 100%; in the series with Alternaria brassicae it was 90 to 100%; in the series with Pyrenophora teres [6] it was 70 to 79%. In [5], the chromatographic logP is 4.28.

For the compound `Cc1ccc(C(F)(F)CNC(=O)c2c(Oc3cccc(C4CC4)c3)cnc3ccccc23)c(C)c1` [I-223], the inhibition at 20 ppm (in series [1]; in the series on Botrytis cinerea [2]; in the series on Alternaria alternata; in the series with Pyrenophora teres [7]) was 90 to 100% throughout. The pest or weed control at 500 ppm in series [3] was in the range of 90 to 100%; in the series on Botrytis cinerea [4], 90 to 100%; with Sphaerotheca fuliginea it was 90 to 100%; in the series with Alternaria brassicae, 90 to 100%; in the series on Pyrenophora teres [6], 80 to 89%. The compound further showed a chromatographic logP in series [5] of 4.59.

On to `Cc1ccc(C(F)(F)CNC(=O)c2c(Oc3cccc(C4CC4)c3F)cnc3ccccc23)c(C)c1` [I-224], for which the inhibition at 20 ppm (in [1]; with Botrytis cinerea [2]; with Alternaria alternata; in the series with Pyrenophora teres [7]) was 90 to 100% in each case. Moreover, the pest or weed control at 500 ppm in series [3] lay within 90 to 100%; in the series on Botrytis cinerea [4], 90 to 100%; in the series with Sphaerotheca fuliginea, 90 to 100%; in the series with Alternaria brassicae it was 80 to 89%; with Pyrenophora teres [6], 70 to 79%. In addition, the chromatographic logP in series [5] turned out to be 4.63.

Take `Cc1ccc(C(F)(F)CNC(=O)c2c(Oc3cccc(Br)c3)cnc3ccccc23)c(C)c1` [I-226]: the inhibition at 20 ppm (in [1]; in the series on Botrytis cinerea [2]; in the series on Alternaria alternata; in the series on Pyrenophora teres [7]) was 90 to 100% in each case. The pest or weed control at 500 ppm in [3] fell in the range of 90 to 100%; with Botrytis cinerea [4], 90 to 100%; with Sphaerotheca fuliginea it was 90 to 100%; in the series with Alternaria brassicae, 90 to 100%; with Pyrenophora teres [6], 70 to 79%. Moreover, the chromatographic logP in [5] turned out to be 4.48.

In the case of `Cc1ccc(C(F)CNC(=O)c2c(Oc3cccc(Cl)c3F)nnc3c2CCC3)c(C)c1` (stereo not drawn) [I-236], the inhibition at 20 ppm with Botrytis cinerea [2] is 90 to 100%; in the series with Alternaria alternata, 80 to 89%; in the series with Pyrenophora teres [7], 90 to 100%. The pest or weed control at 500 ppm (in [3]; with Botrytis cinerea [4]; in the series on Sphaerotheca fuliginea; in the series on Alternaria brassicae; with Pyrenophora teres [6]) was 90 to 100% each time. For the same compound, the chromatographic logP in series [5] turned out to be 3.73.

The values are drawn from patent US20230192617A1, “AZABICYCLIC(THIO)AMIDES AS FUNGICIDAL COMPOUNDS” (Bayer CropScience Aktiengesellschaft, priority 2020, published 2023).
